# Results reported in patent publication EP4635969A1, “NOVEL GLUCOCORTICOID, METHOD FOR PREPARING SAME, AND USE THEREOF” (Tianjin Pharmaceutical Biotechnology Co., Ltd., priority 2022, dated 2024).
# What was measured:
# [1] = Determination of stability in plasma in vitro, human plasma (LC-MS/MS); format: in vitro ADME; conditions: human, human plasma, 1 µM, 37 °C; read-out: Half-life T1/2 (min) in plasma of different species, Human plasma
# Protocol: (§1) Pharmacological Example 3: Determination of Stability in Plasma in Vitro
# (§2) The stock solution was diluted with acetonitrile to obtain a working solution at a concentration of 100 µ M. The solution should be freshly prepared prior to use and maintained at room temperature during application.
# (§3) 990 µ L of human and mouse plasma (N = 2) were separately pipetted and pre-incubated at 37 °C for 5 min. Then, 10 µ L of the test compound working solution was added and vortexed thoroughly (the final concentration of the test compound was 1 µ M). Immediately, 50 µ L of the plasma sample was added to 150 µ L of ice-cold precipitation agent containing the internal standard and vortexed thoroughly as the 0-time sample. The remaining plasma sample was continuously incubated at 37 °C, and 50 µ L of the plasma sample was aspirated and added to 150 µ L of ice-cold precipitation agent containing the internal standard at preset sampling time points, followed by thorough vortexing. The collected samples were stored in a freezer at -60 to -90 °C until analysis.
# (§4) The concentration of the test compound was determined by LC-MS/MS, and its degradation was monitored. (semi-quantitative determination was conducted by comparing the peak area of the analyte to that of the internal standard).
# [2] = target: T1, mineralocorticoid receptor (MR) (Homo sapiens, UniProt P08235); assay: Assay for agonist activity on mineralocorticoid receptor (luciferase reporter, HEK293 cells transfected with pBIND-MR plasmid); format: cell-based
# T1 sequence (P08235 726-984): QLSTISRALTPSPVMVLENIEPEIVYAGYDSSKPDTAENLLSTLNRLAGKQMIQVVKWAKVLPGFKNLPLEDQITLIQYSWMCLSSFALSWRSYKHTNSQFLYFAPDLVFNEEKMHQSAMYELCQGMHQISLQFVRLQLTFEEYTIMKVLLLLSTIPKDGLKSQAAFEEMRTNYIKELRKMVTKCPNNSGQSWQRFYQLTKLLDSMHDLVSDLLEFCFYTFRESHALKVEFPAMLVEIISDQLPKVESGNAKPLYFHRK
# Protocol: (§5) Pharmacological Example 2: Assay for Agonist Activity on Mineralocorticoid Receptor (MR) and Progesterone Receptor (PR)
# (§6) Test compound stock solutions: The test compounds (compounds 4, 5, 7, 8, 9, 11, 13, 16, 17, 18, 22, 23, 24, 34, 35, 36, 38, 41, 45, 47, 53, 55, and 59) were accurately weighed, dissolved in DMSO to prepare stock solutions at a concentration of 20 mM, and stored at -20 °C.
# (§7) The test compounds were subjected to a 4-fold serial dilution starting from an initial concentration of 50 µ M, generating a 12-point concentration gradient with duplicate wells for each concentration. The blank control consisted of 0.1% DMSO.
# (§8) The HEK293 stable cell lines […] transfected with mineralocorticoid receptor (MR) and progesterone receptor (PR) (ICE Bioscience, Lot No. TYP-20220819, TPJ-20220812) were cultured in Dulbecco's Modified Eagle Medium (DMEM) supplemented with 10% fetal bovine serum (FBS) and 200 µ g/ml Hygromycin B in a cell incubator containing 5% CO2 at 37 °C. The spent medium was aspirated, and the cells were washed once with phosphate-buffered saline (PBS). Then, 1 mL of TrypLE™ Express solution was added, and the cells were incubated at 37 °C for approximately 2 min. When the cells detached from the bottom of the cell culture dish, approximately 5 mL of pre-warmed complete medium at 37 °C was added. The cell suspension was gently pipetted with a pipette to dissociate clumped cells. The cell suspension was transferred to a sterile centrifuge tube and centrifuged at 1000 rpm for 5 min to pellet the cells for experiments or subculture..
# (§9) HEK293 cells were digested and seeded into 6-cm culture dishes. The pBIND-MR and pBIND-PR plasmids were separately transfected into the HEK293 cells using a transfection reagent, resulting in HEK293 cells successfully transfected with the pBIND-MR and pBIND-PR plasmids, respectively. The cells were resuspended in phenol red-free DMEM medium containing 5% charcoal-stripped serum, counted, and then seeded into 96-well plates. The test compounds were added, and the plates were then incubated in an incubator. The luminescence signal values were measured using a multimode microplate reader following the instructions of the luciferase assay kit. The EC50 values of each test compound were calculated using the nonlinear fitting formula with GraphPad Prism 8.0 software.
# asthma model mice = assay: Anti-asthma pharmacodynamic experiment: airway hyperresponsiveness (Penh) after methacholine challenge; format: in vivo, female BALB/c mice
# [3] = target: T2, progesterone receptor (PR) (Homo sapiens, UniProt P06401); assay: Assay for agonist activity on progesterone receptor (luciferase reporter, HEK293 cells transfected with pBIND-PR plasmid); format: cell-based
# T2 sequence (P06401 678-933): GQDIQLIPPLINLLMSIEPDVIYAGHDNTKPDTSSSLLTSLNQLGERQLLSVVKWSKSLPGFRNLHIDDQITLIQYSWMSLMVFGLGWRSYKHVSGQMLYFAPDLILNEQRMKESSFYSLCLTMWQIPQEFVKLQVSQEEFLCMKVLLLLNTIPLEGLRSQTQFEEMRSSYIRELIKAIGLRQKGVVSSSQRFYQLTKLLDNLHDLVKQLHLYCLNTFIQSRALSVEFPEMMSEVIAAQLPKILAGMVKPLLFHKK
# Protocol: as §5, §6, §7, §8, §9
# [4] = Pharmacokinetic (PK) experiment in rats; format: in vivo, male SD rats; conditions: male, SD, rat, plasma, single
# Protocol: Pharmacological Example 11. Pharmacokinetic (PK) Experiment in Rats
# The solution was prepared before administration.
# Animals: 6 male SD rats, SPF grade (Beijing Vital River Laboratory Animal Technology Co., Ltd.).
# Animal grouping: The animals were weighed prior to administration, and the dosage was calculated based on body weight. The animals in the oral administration group were fasted overnight (10-14 hours) before administration, and food was reintroduced 4 hours post-administration. Table 23. Animal grouping and drug administration dosages for pharmacokinetic (PK) experiment in rats
# Blood collection time points: Blood was collected from the jugular vein at 2 min, 5 min, 15 min, 30 min, 1 h, 2 h, 4 h, 8 h, and 24 h after administration. Approximately 0.25 mL of blood was collected for each sample, anticoagulated with heparin sodium, and then placed on ice immediately.
# Plasma sample processing: Blood samples were placed on ice after collection and centrifuged to separate plasma within 1 hour (centrifugation conditions: 6000 rpm, 3 minutes, 2-8 °C ). Plasma samples were stored in a -80°C freezer before analysis.
# Data processing: Pharmacokinetic parameters were calculated using Phoenix WinNonlin 8.2.0 based on the plasma drug concentration data at different time points.
# [5] = Stability in animal lung tissue homogenate, skin tissue homogenate and aqueous humor; format: in vitro ADME
# IL-17 = assay: Psoriasis experiment (imiquimod model): inflammatory cytokine in serum (ELISA); format: in vivo, mice; conditions: for level of IL-17 / inflammatory cytokines in psoriasis model mice: compared with the model group; for IL-17: serum, day 8 of modeling, 0.2 g cream per mouse daily for 7 days
# [6] = test system: inflammatory cytokines IL-6 and IL-12; assay: Anti-asthma pharmacodynamic experiment: inflammatory cytokines in bronchoalveolar lavage fluid (ELISA); format: in vivo, female BALB/c mice
# [7] = Determination of stability in plasma in vitro, mouse plasma (LC-MS/MS); format: in vitro ADME; conditions: 37 °C, read-out: Half-life T1/2 (min) in plasma of different species, Mouse plasma
# Protocol: as §1, §2, §3, §4
# psoriasis model mice = assay: Psoriasis experiment (imiquimod model): skin lesion (PASI) score; format: in vivo; conditions: for PASI scores: compared with the model group; for PASI score: day 8 of modeling, 0.2 g cream per mouse daily for 7 days (compounds 1 mg/g, fluticasone propionate 0.5 mg/g)
# [8] = after entering the systemic circulation; cited from earlier work
# [9] = bronchoalveolar lavage fluid, 0.3 mg/mL, 50 µL intratracheally once daily for 3 days
smiles,measurement,setting,value
"C[C@]12C=CC(=O)C=C1[C@@H](F)C[C@H]1[C@@H]3C[C@H]4OC(c5ccc(CSC6CCOC6=O)cc5)O[C@@]4(C(=O)CO)[C@@]3(C)C[C@H](O)[C@@]12F (stereo partly drawn) [Compound 8, (2S,6aS,6bR,7S,8aS,8bS,11aR,12aS,12bS)-2,6b-Difluoro-7-hydroxy-8b-(2-hydroxyacetyl)-6a,8a-dimethyl-10-(4-(((2-oxotetrahydrofuran-3-yl)thio)methyl)phenyl)-1,2,6a,6b,7,8,8a,8b,11a,12,12a, 12b-dodecahydro-4H-naphtho[2',1':4,5]indeno[1,2-d][1,3]dioxol-4-one]",half-life at 1 µM,[1],< 30 min
same,EC50,[2],> 50 µM
same,"Penh values in mice, Methacholine concentration (mg/ml) 0","asthma model mice; 0.3 mg/mL, 50 µL intratracheally once daily for 3 days, methacholine 0 mg/ml",1.17 ± 0.23
same,"Penh values in mice, Methacholine concentration (mg/ml) 6.25","asthma model mice; 0.3 mg/mL, 50 µL intratracheally once daily for 3 days, methacholine 6.25 mg/ml",1.78 ± 0.46
same,"Penh values in mice, Methacholine concentration (mg/ml) 12.5","asthma model mice; 0.3 mg/mL, 50 µL intratracheally once daily for 3 days, methacholine 12.5 mg/ml",2.07 ± 0.66
same,Effects on airway hyperresponsiveness (Penh values) in mice,asthma model mice; compared with the model group,significantly decreased the Penh values in mice
same,EC50,[3],> 50 µM
same,AUC(0-t),"[4]; iv, 2 mg/kg",106 ± 35.9 ng·h/mL
same,half-life,"[4]; iv, 2 mg/kg",< 30 min
same,AUC(0-t),"[4]; po, 10 mg/kg, gavage",< 70 ng·h/mL
same,half-life,"[4]; po, 10 mg/kg, gavage",313 ± 190 min
same,Cmax,"[4]; IV, 2 mg/kg",924 ± 504 ng/mL
same,Cmax,"[4]; PO, 10 mg/kg, gavage",23.5 ± 14.4 ng/mL
same,"stability in animal lung tissue homogenate, skin tissue homogenate, and aqueous humor",[5],relatively stable
same,level of IL-17 / inflammatory cytokines in psoriasis model mice,IL-17,significantly decreased the level of IL-17
same,IL-17,IL-17,53.35 ± 64.19 pg/mL
same,IL-6,[6]; [9],19.9 ± 5.3 pg/mL
same,IL-12,[6]; [9],20.1 ± 7.1 pg/mL
same,Effects on inflammatory cytokines in bronchoalveolar lavage fluid of mice,[6]; compared with the model group,extremely significantly decreased the levels of IL-6 and IL-12 in mice
same,half-life at 1 µM,[7],< 30 min
same,PASI scores,psoriasis model mice,PASI scores significantly decreased on day 7
same,PASI score,psoriasis model mice,4.8 ± 1.3
"CCC(=O)O[C@]1(C(=O)SCF)[C@H](C)C[C@H]2[C@@H]3C[C@H](F)C4=CC(=O)C=C[C@]4(C)[C@@]3(F)[C@@H](O)C[C@@]21C [Fluticasone propionate, reference compound]",plasma half-life in the human body,[8],180 min
same,level of IL-17 / inflammatory cytokines in psoriasis model mice,IL-17,significantly decreased the level of IL-17
same,IL-17,IL-17,25.04 ± 10.02 pg/mL
same,PASI scores,psoriasis model mice,PASI scores significantly decreased on day 7
same,PASI score,psoriasis model mice,4.0 ± 0.6
